Assays:
[1] = test system: CREB-dependent EVX-1 promoter; assay: Transient transfection assay of HIT insulinoma cells with CREB-dependent EVX-1 luciferase reporter; type: cell-based, Hamster; conditions: for induction of CREB-dependent EVX-1 promoter: single stimulus (KCl 45 mM or forskolin), 6 hr
Description: Specifically, FIG. 1A summarizes the results of a transient transfection assay of HIT insulinoma cells transfected with the CREB-dependent EVX-1 luciferase reporter. Cells were treated with KCl (45 mM) and/or forskolin (10 nM) for six hours as indicated.
HEK293T, HIT or PC 12 cells were co-transfected with EVX or GAL4-LUC reporter plasmid, RSV-beta galactosidase and FLAG-TORC and/or SIK2 expression plasmids overnight using Lipofectamine 2000 (Invitrogen, Carlsbad, Calif.). DNA/lipid complexes were washed the next day and extracts prepared 24 h (293T and PC 12) or 40 hr (HITs) after transfection. […] Luciferase values were normalized to β-gal activity from co-transfected RSV-beta galactosidase activity in the corresponding sample.
Hamster insulinoma (HIT) cells were employed to test the relative effects of cAMP and calcium signals on CREB activity. Opening of voltage-sensitive L-type calcium channels in response to KC1 depolarization induced the CREB-dependent EVX-1 promoter (Conknight et al., 2003b) 5-fold in HIT cells, whereas addition of cAMP agonist stimulated the reporter 10-fold (see FIG. 1A). […] Consistent with the effects of calcium channel activity on the EVX-1 promoter, treatment with high glucose (20 mM) induced the expression of the endogenous CREB target gene NR4A2 5-fold in MIN6 insulinoma cells; and co-stimulation with glucose plus exendin-4, an analogue of the incretin hormone GLP-1, enhanced NR4A2 mRNA levels 35-fold (see FIG. 1B).

GAL4-CREB = GAL4-CREB transient GAL4 luciferase reporter assay in HIT cells; type: cell-based, Hamster
phospho (Ser133) CREB = assay: Western blot of phospho (Ser133) CREB levels in HIT cells; type: cell-based, Hamster; conditions: forskolin 10 μM or KCl 45 mM
Description: FIG. 1C is a Western blot assay of phospho (Ser133) CREB levels in HIT cells following treatment with KCl (45 mM), forskolin (10 μM), or both together for 30 minutes.
FIG. 9 illustrates the time course (in minutes) of CREB Ser133 phosphorylation in HIT cells following treatment with forskolin (10 μM) or KCl (45 mM). […] Immunoreactive bands correspond to phospho (Ser133) CREB (top) and phospho (Ser63) ATF1 (bottom).
Western blot analyses were conducted on whole cell, cytoplasmic and nuclear extracts with the following rabbit polyclonal antisera: phospho (Ser133) specific affinity purified 5322 and phospho (Ser133) specific antibody from Rockland Immunochemicals, Gilbertsville, Pa.), non-discriminating CREB (244), phosphor (Ser171) CREB, TORC2, pan-TORC, SIK1 and SIK2. 14-3-3 and Hsp90 antibodies were from Santa Cruz (Santa Cruz, Calif.). FLAG-M2 (Sigma) and GAL4 (Santa Cruz) monoclonal antibodies were used at 1:2000 and 1:1000 dilutions, respectively. For quantitative western blotting, goat anti-mouse-800 nm fluorophore conjugate to detect FLAG-M2 was used at 1:40,000 dilution according to manufacturer's instructions (Licor) prior to analysis using the Odyssey detection system. GST-pulldowns were performed as described (Asahara et al., 2001). […]

TORC2 [2] = assay: EVX-1 reporter assay in HIT cells co-transfected with TORC2 expression vector; type: cell-based, Hamster
Description: Cells were treated with forskolin or KCl as indicated.

[3] = test system: CREB:CBP complex (KID:KIX interaction); assay: Mammalian two-hybrid assay GAL4-KID / KIX-VP16 in HIT cells; type: cell-based, Hamster
TORC2 [4] = assay: TORC2 localization, Ser171 phosphorylation and promoter recruitment in liver after IP injection; type: in vivo; conditions: mice; IP administration
primary rat hepatocytes = assay: Glucose output from primary rat hepatocytes; type: cell-based; conditions: FSK/DEX
Description: FIG. 17C summarizes the effect of TORC on glucose output from primary rat hepatocytes in response to fasting and feeding signals. Cells were infected with TORC1, TORC2, or control GFP adenovirus and then treated with FSK plus dexamethasone (FSK/DEX) for four hours. The effect of insulin on glucose output is shown.
Rat primary hepatocytes were prepared from 200-300g of Sprague-Dawley rats by collagenase perfusion method as described previously (see Koo et al., 2004). 1×10^6 cells were plated in 6 well plates with medium 199 (Invitrogen, Carlsbad, Calif.) supplemented by 10% FBS, 10 units/ml penicillin, 10 μg/ml streptomycin, and 10 nM dexamethasone for 3-6 hours. After attachment, cells were infected with adenoviruses for 16 hours. Subsequently, cells were maintained in medium 199 without FBS and dexamethasone for 24 hours (for cDNA expression adenoviruses) or 48 hours (for RNAi adenoviruses) and […] forskolin or 100 nM glucagon for 2 hours unless noted otherwise. For experiments with cycloheximide, 10 μg/ml cycloheximide was added 30 minutes prior to the addition of 100 nM glucagon.
The ability of TORC2 to modulate gluconeogenic gene expression in hepatocytes exposed to cAMP agonist is consistent with the proposal that this coactivator modulates glucose output from the liver in response to fasting signals.

CREB = CREB Ser133 phosphorylation in liver after IP injection (histochemical and Western blot); type: in vivo; conditions: mice; intraperitoneal administration
[5] = test system: AMPK (AMP-activated protein kinase); assay: In vitro kinase assay of GST-TORC2 (161-181) with purified AMPK; type: biochemical; conditions: 300 μM AMP
Text: Specifically, FIG. 20A illustrates the relative phosphorylation of wild-type or Ser171 Ala mutant recombinant GST-TORC2 (161-181) compared to GST only or optimal AMPK peptide substrate (SAMS) by activated AMPK in vitro. Addition of AMP to reactions is shown. The relative incorporation of γ^32P-ATP by each substrate is indicated.
Recombinant GST-TORC2 (161 -181) wild-type and Ser171 Ala proteins were phosphorylated in vitro with 100 mU purified AMPK (AMP-activated protein kinase) (Upstate Biotech) ±300 μM AMP according to the manufacturer's instructions. Following 15 mm. incubation with γ-^32P-ATP, relative ^32P incorporation was measured by scintillation. GST substrates and SAMS peptide were used at 3 μM in each reaction.
By contrast with SIK, ATP depletion appears to be uniquely sensed by AMPK, the founding member of this family (see Sakamoto et al., 2004; Lizcano et al., 2004; Bananjee et al., 2004; and Radzuik et al., 2003). The presence of a consensus AMPK phosphorylation site (Ser171) that modulates TORC2 activity in liver prompted examination of whether AMPK inhibits gluconeogenesis via phosphorylation of TORC2 in response to ATP depletion. Activated AMPK phosphorylated wild-type, but not Ser171Ala mutant GST-TORC2 (161-181) peptide in vitro (see FIG. 20A).

TORC:14-3-3 complexes = assay: Co-immunoprecipitation of TORC with endogenous 14-3-3 proteins; type: cell-based; conditions: basal and cAMP stimulated conditions; CsA 5 μM, OA 100 nM
Text: FIGS. 5A-5D illustrate that 14-3-3 proteins associate with and repress TORC activity. Specifically, FIG. 5A, top panel, presents the results of a coimmunoprecipitation assay of Flag-TORC1 with endogenous 14-3-3 proteins in HEK293T cells. The effect of forskolin (F) treatment on the TORC 1: 14-3-3 association is shown. […] FIG. 5A, bottom left panel, is a Western blot assay of 14-3-3 proteins recovered from TORC or control 1 gG immunoprecipitates, illustrating the effect of forskolin treatment on endogenous TORC: 14-3-3 complexes in PC12 and HEK293T cells. Input levels of 14-3-3 and TORC proteins are shown. […] FIG. 5A, bottom right panel, illustrates the kinetics of TORC2 dissociation from endogenous 14-3-3 proteins in response to forskolin treatment of HEK293T cells. The levels of Flag-tagged TORC 2 (FLAG-T2) recovered from flag immunoprecipitates at each time point is shown below.
Rabbit pan-TORC (raised against 1-42 of human TORC1) and TORC2 selective rabbit polyclonal antiserum (raised against amino acids 454-607 of mouse TORC2) were generated as previously described (Conkright et al., 2003a)). Whole cell protein was extracted from cultured HEK293T, HIT, and MIN6 cells in Laemmli SDS sample buffer. Alternatively, whole cell protein was extracted from liver tissue or primary hepatocytes in SDS-urea-lysis buffer. […]

SIK1 = SIK1 mRNA levels in primary rat hepatocytes; type: cell-based
Text: FIG. 18F summarizes the effect of FSK treatment on SIK1 mRNA levels in primary rat hepatocytes. Cells were infected with control (GFP) or dominant negative A-CREB adenovirus as indicated.
Based on the ability of CHX to disrupt TORC2 Ser171 phosphorylation, it was hypothesized that glucagon induces the expression of an inhibitory kinase during the attenuation period. […] Indeed, fasting induced SIK1 mRNA and protein levels in liver 4-fold relative to feeding conditions, whereas expression of other SIK family members (SIK2 and SIK3) was unaffected (see FIGS. 18D and 18E).

[Cl-].[K+] [KCl]
induction of CREB-dependent EVX-1 promoter [1]: 5 fold
induction of GAL4 reporter activity via GAL4-CREB (GAL4-CREB; added individually): 2 fold
response of truncated GAL4-CREBΔbZIP polypeptide (GAL4-CREB; lacking bZIP domain (aa. 284-341)): no induction
levels of CREB Ser133 phosphorylation (phospho (Ser133) CREB): increased levels of CREB Ser133 phosphorylation
further potentiation of EVX-1 reporter in TORC2 over-expressing cells (TORC2 [2]): 30 fold
effect on KID:KIX interaction ([3]; KCl depolarization alone): had no effect

insulin
TORC2 phosphorylation at Ser171 in liver (TORC2 [4]): highly phosphorylated at Ser171
nuclear translocation of hepatic TORC2 (TORC2 [4]): did not stimulate nuclear entry of TORC2
effect on glucose output from TORC over-expressing cells (primary rat hepatocytes): disrupted
CREB Ser133 phosphorylation in liver (CREB): comparable effects on Ser133 phosphorylation

Nc1ncnc2c1ncn2[C@@H]1O[C@H](COP(=O)(O)O)[C@@H](O)[C@H]1O [AMP]
phosphorylation of TORC by AMPK [5]: induced

C=C1[C@@H](O)[C@@H]2O[C@]3(CC[C@H](/C=C/[C@@H](C)[C@@H]4CC(C)=C[C@@]5(O[C@H](C[C@@](C)(O)C(=O)O)CC[C@H]5O)O4)O3)CC[C@H]2O[C@@H]1[C@@H](O)C[C@H](C)[C@H]1O[C@@]2(CCCCO2)CC[C@H]1C [okadaic acid]
effect of phosphatase inhibitor on TORC:14-3-3 complex formation (TORC:14-3-3 complexes): had no effect on this interaction

C=C[C@@]1(C)CC(=O)[C@]2(O)[C@@]3(C)[C@@H](O)CCC(C)(C)[C@@H]3[C@H](O)[C@H](OC(C)=O)[C@@]2(C)O1 [forskolin, Forskolin]
stimulation of CREB activity (EVX-1 reporter) ([1]; co-stimulation with both forskolin and KCl): 80 fold
induction of CREB-dependent EVX-1 promoter [1]: 10 fold
induction of GAL4 reporter activity via GAL4-CREB (GAL4-CREB; KCl and forskolin in combination): 22 fold
induction of GAL4 reporter activity via GAL4-CREB (GAL4-CREB; added individually): 5 fold
induction of SIK1 mRNA levels (SIK1): 20 fold
further potentiation of EVX-1 reporter in TORC2 over-expressing cells (TORC2 [2]): 25 fold
stimulation of KID:KIX interaction (GAL4 luciferase reporter) ([3]; 6 hours): 20 fold

From US7485434B2, “Method for screening compounds for those that modulate transducers of regulated CREB activity” (The Salk Institute for Biological Studies, priority 2005, dated 2009)
